Laboratory results reported in patent US20250295790A1, “LECTIN-TARGETING CONJUGATES” (Helmholtz-Zentrum für Infektionsforschung GmbH, priority 2021, published 2025).
Entries after “also recorded” stand apart in the source; their conditions may differ. Where no end group is shown, it is not given here. [ ]: non-standard residue; d: D form. Nba = nitrobenzyl amine (quencher); 2Abz = Nc1ccccc1C(=O)O

Key:
[1] = target: T1, LecA (Pseudomonas aeruginosa, UniProt Q05097); assay: Isothermal titration calorimetry with LecA; type: binding
T1 construct: made in house
T1 sequence (Q05097 whole entry): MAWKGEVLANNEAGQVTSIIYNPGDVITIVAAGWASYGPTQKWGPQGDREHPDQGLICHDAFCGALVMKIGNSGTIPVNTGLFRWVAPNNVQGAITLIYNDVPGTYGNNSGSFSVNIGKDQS
Procedure: Isothermal titration calorimetry was performed on an iTC200 (Malvern Panalytical) and the data were analyzed using Microcal Origin software (Malvern Panalytical). LecA in the cell was titrated with ligand in TBS/Ca^2+ buffer supplemented with 5% DMSO at 25° C. Steep titration slopes were the result of high amount of protein present and the high binding affinity of the ligand (high ‘value of c’).
Isothermal titration calorimetry was performed on an iTC200 (Malvern Panalytical) and the data were analyzed using Microcal Origin software (Malvern Panalytical).

[2] = Stability in aqueous buffer; type: physicochemical; details: Tris buffer (TBS/Ca2+), after 24 h
[3] = target: T1, LecA; assay: Surface plasmon resonance with LecA; type: binding
Procedure: Surface plasmon resonance experiments were performed on a BIACORE X100 instrument (GE Healthcare) at 25° C. as described by Zahorska et. al. 2020. Averages and standard deviations were calculated from three independent experiments.

[4] = target: T1, LecA; assay: Direct titration of fluorescent ligand with LecA in fluorescence polarization assay; type: binding
[5] = target: T2, MMP-2 (Homo sapiens, UniProt P08253); assay: FRET-based cleavage assay with MMP-2; type: biochemical; details: serial dilution of activated MMP-2
T2 sequence (P08253 110-660): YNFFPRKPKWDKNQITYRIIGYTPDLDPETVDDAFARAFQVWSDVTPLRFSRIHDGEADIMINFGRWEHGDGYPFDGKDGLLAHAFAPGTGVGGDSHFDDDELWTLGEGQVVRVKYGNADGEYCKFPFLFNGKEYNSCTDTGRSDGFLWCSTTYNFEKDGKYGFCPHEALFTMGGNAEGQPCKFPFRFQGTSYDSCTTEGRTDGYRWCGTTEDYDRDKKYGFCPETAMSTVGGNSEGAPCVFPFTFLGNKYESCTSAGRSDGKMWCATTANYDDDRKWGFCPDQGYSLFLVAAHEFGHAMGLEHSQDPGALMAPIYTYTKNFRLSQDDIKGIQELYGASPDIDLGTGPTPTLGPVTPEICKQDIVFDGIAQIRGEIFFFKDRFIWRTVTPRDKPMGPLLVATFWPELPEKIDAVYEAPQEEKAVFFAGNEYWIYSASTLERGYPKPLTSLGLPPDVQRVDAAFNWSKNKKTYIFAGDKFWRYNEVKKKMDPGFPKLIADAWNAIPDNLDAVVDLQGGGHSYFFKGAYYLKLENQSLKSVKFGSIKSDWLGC
Procedure: MMP-2 (50 μL, 0.2 μg/mL in 20 mM tris pH 7.5, 8 mM CaCl2, 119 mM NaCl, 20% Glycerol, 0.05% Brij 35, Cat #SAE0174-50UG, Sigma-Aldrich) was activated with 1 mM APMA (from 100 mM DMSO stock, Cat #AS—71158, AnaSpec) for 1 h at 37° C. Then, dilution series of the activated MMP-2 and of PA14-filtrate were prepared in PBS. SensoLyte 520 generic MMP substrate (Cat #AS—71158, AnaSpec) was diluted 1:100 in PBS. […] 10 μL dilution series was mixed with 10 μL MMP substrate or LasB substrate and fluorescence (λex=490 mn, λem=520 nm and λex=320 mn, λem=420 nm, for MMP substrate and LasB substrate, respectively) was recorded for 10 min (10 s interval).

[6] = tested on: P. aeruginosa PAO1 biofilms; assay: P. aeruginosa biofilm staining in the flow cell; type: cell-based, Pseudomonas aeruginosa PAO1; details: 500 nM in medium, 4 h accumulation, flow 3 mL/h
Procedure: Colonies of PAO1 wt labelled with the red fluorescent protein mCherry (pMP7605) were picked from a LB agar plate and transferred to 10 mL LB medium with Gentamicin 60 μg/ml to start an overnight culture. Incubation was done at 37° C. and 180 rpm overnight. A fresh culture was inoculated to an OD600nm of 0.02 (10 mL LB with Gentamicin 60 μg/mL) and incubated until the exponential growth phase was reached (OD600nm of 0.4 to 0.8). The bacterial suspension was diluted again to an OD600m of 0.1 and 300 μL were injected into a six-channel μ-slide (ibidi, Germany). The settling time was 30 min. The flow of 1:5 diluted LB medium with Gentamicin 60 μg/ml was 3 mL/h. The biofilms were grown in a heat system (ibidi, Germany) at 30° C. and for 48 h.
After 48 h of biofilm growth, aggregates were stained by supplementing the divalent LecA ligand 57 and Fluorescein disodium salt 58 as a control to the medium. The final concentration of the supplements in the medium was 500 nM and constantly accumulated within the biofilm for 4 h by a flow rate of 3 mL/h. Washing was performed for 30 min with LB 1:5 diluted with Gentamicin 60 μg/mL.
Analysis was done by using a fluorescence microscope Leica DMi8. […] The green fluorescein signal was detected by an excitation wavelength of 460 to 500 nm and an emission wavelength of 512 to 542 nm. Snapshots were normalized by using the Fiji software. […]

[7] = tested on: T3, LecA-targeted prodrug 36 (peptide-based prodrug with the linker Ala-Gly-Leu-Ala, SEQ ID NO 3, between a LecA-targeting galactoside and fluoroquinolone 2)
T3 sequence: AGLA

[8] = tested on: T4, LasB cleavable substrate Abz-Ala-Gly-Leu-Ala-Nba (SEQ ID NO 3, labelled)
T4 sequence: AGLA

[9] = Cleavage / stability in PA14-filtrate without human blood plasma; type: in vitro ADME, Pseudomonas aeruginosa PA14; details: up to 24 h
Procedure: P. aeruginosa PA14 was streaked on LB-agar plates (1% agar) from glycerol stocks and incubated at 37° C. overnight. 2-5 colonies were picked and dispersed in 10 mL LB (10 g/L trypton, 10 g/L NaCl, 5 g/L yeast extracts). This dispersion was incubated overnight at 37° C., 180 rpm under high humidity. The culture was centrifuged (4000 ref, room temperature, 10 min) and the supernatant was filtered (0.22 m pore size). […]
A 1 mM solution of the studied compound was prepared in PBS (150 mM NaCl, 2.6 mM KCl, 1.4 mM KH2PO4, 10 mM Na2HPO4, pH 7.4) with 20% DMSO. 50 μL of this solution was diluted in 950 μL matrix or human plasma (spiked with 10% LB) on ice. After brief vortex, 100 μL were immediately treated with 100 μL ice-cold MeCN (spiked with […] diphenhydramine as internal standard). The rest of the solution was incubated at 37° C. and 500 rpm in an eppendorf thermomixer. At various time points (30, 60, 120, 180 min), 100 L sample were taken and treated as described above. […] The AUC of the parent drug and its cleavage products and the internal standard was quantified using Compass QuantAnalysis quantification software. The relative AUC was calculated by AUC (compound)/AUC(ISTD). Procaine was used as a positive control as it readily degrades in human plasma.

Which Kd ([1]; ITC, TBS/Ca2+ buffer, 5% DMSO, 25° C.) does the source give for `O=C(CCc1ccc(O[C@@H]2OC(CO)[C@H](O)C(O)C2O)cc1)Nc1ccc(CN(CCc2cn(CCOCCOCCOCCNC(=S)Nc3ccc4c(c3)C(=O)OC43c4ccc(O)cc4Oc4cc(O)ccc43)nn2)Cc2ccc(NC(=O)CCc3ccc(O[C@@H]4OC(CO)[C@H](O)C(O)C4O)cc3)cc2)cc1` (some centres unmarked) [Compound 57] here?
Its Kd is “High affinity”.

And the degradation in buffer [2]?
Its degradation in buffer is “did not show any degradation”.

And the Kd [3]?
The Kd was 19.3 ± 10.5 nM.

What about the Kd [4] of the same compound?
The Kd was 1050 nM.

For “Abz-Ala-Gly-Leu-Ala-Nba ([2Abz]AGLA-Nba) [LasB-substrate]”, which “cleavage of FRET substrate by MMP-2” value [5] is on record?
Its value is “rather stable; also recorded: very weak turnover”.

For `CC1=CC(C)=[N+]2C1=Cc1ccc(CCC(=O)NCCCN=[N+]=[N-])n1[B-]2(F)F` [BDP FL azide], which biofilm staining [6] is on record?
The biofilm staining was “did not show any enrichment”.

Which Kd [1] does the source give for `C#CCCN(Cc1ccc(NC(=O)CCc2ccc(O[C@@H]3OC(CO)[C@H](O)C(O)C3O)cc2)cc1)Cc1ccc(NC(=O)CCc2ccc(O[C@@H]3OC(CO)[C@H](O)C(O)C3O)cc2)cc1` (some centres unmarked) [Compound 55] here?
The Kd was 47.2 ± 11.3 nM.

What about the Kd [3] of the same compound?
Its Kd is 9.9 ± 0.5 nM.

Which results are given for “matrix-metalloprotease 2 (MMP-2), activated with APMA”?
Stability of prodrug 36 in presence of activated MMP-2, monitored by HPLC-MS [7]: No detectable metabolism was observed after 20 min or 3 d at 37 °C; turnover of the LasB-substrate in a FRET-based cleavage assay (serial dilution of activated MMP-2) [8]: Only a very weak turnover of the LasB-substrate was observed in a FRET-based cleavage assay at very high concentrations (>50 ng/mL final) of MMP-2

Which “release of free drug from dipeptide-conjugates” value [9] does the source give for `CC(C)C[C@H](N)C(=O)N[C@@H](C)C(=O)N[C@H]1CCN(c2cc3c(cc2F)c(=O)c(C(=O)O)cn3C2CC2)C1` [Compound 35, 7-((S)-3-((S)-2-((S)-2-amino-4-methylpentanamido)propanamido)pyrrolidin-1-vl)-1-cyclopropyl-6-fluoro-4-oxo-1,4-dihydroquinoline-3-carboxylic acid] here?
The value was “very slow; also recorded: only slowly released their antibiotic cargo”.
